# From patent US20210169984A1, “SENSITIZING CANCER TO DEATH RECEPTOR AGONISTS WITH KINASE INHIBITORS” (The Johns Hopkins University, priority 2016, published 2021)
# Entries after “also recorded” stand apart in the source; their conditions may differ.
# Experiments:
# [1] = in vivo; cited from earlier work
# cancer patients = conditions: cited from earlier work
# HT29 cells [2] = experiment: Western blot of DR4/5 and anti-apoptotic proteins (FIG. 4B); assay type: cell-based, human; conditions: regorafenib, 48 hours
# Experimental: (§1) HT29 cells were treated with regorafenib (2 μM) for 24 hour or 48 hour as indicated. mRNAs for TRAIL receptors were measured by quantitative RT-PCR (qPCR) (FIG. 4A). […] After treating HT29 cells with regorafenib as indicated, DR4/5 or anti-apoptotic proteins were analyzed by Western blot (FIG. 4B). […] Conversely, anti-apoptotic proteins MCL-1 and BCL-2 were absent in HT29 cells treated with regorafenib for 48 hours. It has been previously reported that TRAIL receptors could be induced by signaling including NF-κB, ER stress, and JNK-ROS.
# HT29 (CRC) cells = experiment: KI library screen for TRAIL sensitization (KI pretreatment, then TRAILPEG; MTT cell death assay); assay type: cell-based, human
# Experimental: The screening is performed using an MTT cell death assay in CRC cells with different TRAIL sensitivities.
# HT29 cells [3] = experiment: Western blot of caspases and anti-apoptotic proteins, regorafenib alone or with TRAILPEG (FIG. 3B); assay type: cell-based, human
# Experimental: FIG. 3B depicts a Western blot analysis of HT29 cells with regorafenib alone or in combination with TRAILPEG.
# (§2) Regorafenib potentiated TRAIL-induced apoptosis in HT-29 cells when combined with TRAILPEG (1 μg/mL) (FIG. 3A). After treating cells with regorafenib (2 μM), caspases and anti-apoptotic proteins were analyzed by western blotting (FIG. 3B). […] Data confirmed that FDA-approved KIs or KIs under clinical development synergized with long-acting TRAILPEG by overcoming TRAIL-resistance through unique TRAIL sensitization mechanisms.
# HT-29 cells = experiment: Quantified cell death after combinatorial treatment with regorafenib and TRAILPEG (FIG. 3A); assay type: cell-based, human; conditions: regorafenib combined with TRAILPEG 1 μg/mL
# Experimental: FIG. 3A depicts a bar graph showing that regorafenib (an oral, multi-kinase inhibitor) enhanced TRAILPEG -induced apoptosis in colorectal cancer (CRC) cells. Quantified cell death after combinatorial treatment with regorafenib and TRAILPEG (1 μg/mL) in HT-29 cells is shown.
# as §2
# [4] = test system: PC3 prostate adenocarcinoma cells; experiment: KI library screen for TRAIL sensitization; assay type: cell-based, human
# Experimental: FIG. 2B depicts a bar graph showing quantified cell death after analyzing synergized cell death induced by TRAILPEG (1 μg/mL for 3 hr) and kinase inhibitors (KIs) in HT29 (human colon tumor cell line) and PC3 (human prostate tumor cell line) cells individually pretreated with selected 355 KIs. Relative cell death rates were calculated by [KI+TRAILPEG]/[KI alone] after separate MTT assays. The arrows indicate KIs with >60% cell death; n=3.
# (§3) A library of KIs was screened for TRAIL sensitization in various TRAIL-resistant cancer cells, including: HT29 (CRC), MDA-MB-231 (breast), LNCAP (prostate), DU145 (prostate), PC3 (prostate) and A549 (lung). […] The 355 KIs comprised of compounds targeting diverse kinases, including multi kinases, RTK (receptor kinase tyrosine), PI3K (phosphinistide 3-kinase), aurora kinases, including […] (mitogen-activated protein kinase). […] The interaction between KIs and TRAIL had been previously explored in vitro with the tyrosine KI sorafenib, a drug similar to regorafenib. However, such studies were mostly performed on cellular levels and not in in vivo models, combined with systemically administered recombinant TRAIL. Although a similar structure, regorafenib was newly approved in 2012. The interactions between the three other selected KIs and TRAIL have not been previously reported, in vitro or in vivo.
# HT29 cells [5] = experiment: qPCR of death receptors and decoy receptors (FIG. 4A); assay type: cell-based, human; conditions: regorafenib 2 μM
# Experimental: FIG. 4A depicts a bar graph showing qPCR analysis of death receptors (DRs) and decoy receptors (DcRs) in HT29 cells treated with regorafenib for 24 hours or 48 hours as indicated; *P<0.05, **P<0.01, ***P<0.001 versus control.
# as §1
# [6] = test system: prostate cancer cells (LNCAP, DU145, PC-3); experiment: Western blot of prostate cancer cells, regorafenib alone or with TRAILPEG (FIG. 6A-6C); assay type: cell-based, human
# Experimental: (§4) FIG. 5 depicts a bar graph showing results of tumor volumes in mice bearing TRAIL-resistant HT29 tumors treated with three rounds of TRAILPEG (150 μg, i.v), oral regorafenib (10 mg/kg) or oral regorafenib with TRAILPEG within days (12-17) after tumor inoculation. Mice were sacrificed on day 27. […] FIG. 6A depicts a Western blot analysis of LNCAP prostate cancer cells with regorafenib alone or in combination with TRAILPEG.
# FIG. 6B depicts a Western blot analysis of DU145 prostate cancer cells with regorafenib alone or in combination with TRAILPEG.
# FIG. 6C depicts a Western blot analysis of PC-3 prostate cancer cells with regorafenib alone or in combination with TRAILPEG.
# (§5) Regorafenib potentiated TRAIL-induced apoptosis in prostate cancer cells (LNCAP, HPLNCAP (High Passages LNCAP), DU-145 and PC-3) when combined with TRAILPEG (1 μg/mL) (FIG. 5). After treating cells with regorafenib (5 μM), caspases and anti-apoptotic proteins were analyzed by western blotting (FIG. 6A-FIG. 6C). […] Data confirmed that FDA-approved KIs or KIs under clinical development synergized with long-acting TRAILPEG by overcoming TRAIL-resistance through unique TRAIL sensitization mechanisms.
# [7] = test system: prostate cancer cells (LNCAP, HPLNCAP, DU-145 and PC-3); experiment: Quantified cell death after regorafenib and TRAILPEG in prostate cancer cells; assay type: cell-based, human; conditions: regorafenib 5 μM combined with TRAILPEG 1 μg/mL
# Experimental: FIG. 7 is a bar graph showing that regorafenib enhanced TRAILPEG-induced apoptosis in prostate cancer cells. Quantified cell death after combinatorial treatment with regorafenib (5 μM) and TRAILPEG (1 μg/mL) in various prostate cancer cells is shown. *P<0.05, **P<0.01, ***P<0.001 versus control (regorafenib only).
# as §5
# HT29 xenografts = experiment: TRAIL-resistant HT29 tumor xenograft; assay type: in vivo; conditions: oral regorafenib 10 mg/kg days 12, 14, 16; TRAILPEG 150 μg i.v. days 13, 15, 17; sacrifice day 27
# Experimental: as §4
# The therapeutic combination of oral regorafenib and TRAILPEG in HT29 xenografts in comparison to regorafenib and TRAILPEG alone (FIG. 7) were investigated. HT29 xenografts were treated with oral regorafenib (10 mg/kg) or saline on the 12th, 14th, and 16th days of tumor inoculation. On the 13th, 15th, and 17th days, animals were given an i.v. dose of TRAILPEG (150 μg). Animals were sacrificed on day 27.
# [8] = test system: HP LNCAP prostate adenocarcinoma cells; experiment: KI library screen for TRAIL sensitization; assay type: cell-based, human
# Source text: as §3, §5
# [9] = mouse, in vivo; cited from earlier work
# [10] = test system: TRAIL-resistant cancer cells (HT29, MDA-MB-231, LNCAP, DU145, PC3, A549); experiment: Cell death after TRAIL / TRAILPEG alone in various cancer cells (FIG. 2A); assay type: cell-based, human; conditions: TRAIL 1 μg/mL for 24 hours
# Experimental: Quantified cell death data after TRAIL (1 μg/mL) treatment for 24 hours in various cancer cell types are shown. Human tumor cell lines include: colon (HT-29, SW620, HCT116), prostate (PC3), breast (MDA-MD-231, MCF-7), lung (A549). HCT116 represents a TRAIL-sensitive colorectal tumor for comparison. HEK293T is a normal human kidney cell line.
# as §3
# [11] = regorafenib 5 μM combined with TRAILPEG
molecule,measurement,setting,value
"dulanermin: recombinant TRAIL, native-type, short-acting",half-life,[1],5 min
same,therapeutic benefit,"cancer patients; cancer patients, monotherapy studies",failed to demonstrate a robust therapeutic benefit
same,anticancer activity,"cancer patients; combined with chemotherapy, lung and colon cancer patients",did not reveal improved anticancer activity
same,tolerability,"cancer patients; human, in vivo",broad tolerability
"CNC(=O)c1cc(Oc2ccc(NC(=O)Nc3ccc(Cl)c(C(F)(F)F)c3)c(F)c2)ccn1 [Regorafenib (BAY 73-4506), Regorafenib]",DR4 protein,HT29 cells [2]; listed as Regorafenib,highly expressed
same,DR4 protein,HT29 cells [2]; listed as regorafenib,up-regulation
same,anti-apoptotic proteins MCL-1 and BCL-2,HT29 cells [2]; listed as regorafenib,absent; also recorded: down-regulated
same,"efficacy when combined with TRAILPEG (relative cell death, KI+TRAILPEG / KI alone)",HT29 (CRC) cells; HT29 cells pretreated with KI for 24 hours before TRAILPEG,synergistic efficacy
same,KIs that sensitize cancer cells to TRAIL-based agents,HT29 (CRC) cells; HT-29 colorectal adenocarcinoma,Example KIs that sensitize cancer cells to TRAIL-based agents.
same,RIP-1,HT29 cells [3],dose-dependently downregulated
same,"anti-apoptotic proteins c-FLIP, MCL-1, BCL-2, and BCL-XL",HT29 cells [3]; regorafenib 2 μM,downregulated
same,"caspase-dependent TRAILPEG-induced apoptosis (PARP-1 cleavage, caspase activation)",HT29 cells [3]; regorafenib 2 μM,significantly sensitized
same,TRAIL-induced apoptosis,HT-29 cells; listed as Regorafenib,potentiated
same,TRAIL-induced apoptosis,HT-29 cells; listed as regorafenib,enhanced
same,KIs that sensitize cancer cells to TRAIL-based agents,[4],Example KIs that sensitize cancer cells to TRAIL-based agents.
same,DR4 mRNA,HT29 cells [5]; 24 or 48 hour,significantly upregulate; also recorded: upregulated
same,DRS mRNA,HT29 cells [5]; 24 or 48 hour,minimally induced
same,DcR2 expression,HT29 cells [5]; 48 hour,down-regulating; also recorded: rarely detectable
same,anti-apoptotic protein MCL-1,[6]; [11],downregulated
same,"caspase-dependent TRAILPEG-induced apoptosis (PARP-1 cleavage, caspase activation)",[6]; [11],significantly sensitized
same,apoptosis by single agent,[6]; regorafenib or TRAILPEG alone,did not induce strong apoptosis
same,TRAIL-induced apoptosis,[7]; listed as Regorafenib,potentiated
same,TRAIL-induced apoptosis,[7]; listed as regorafenib,enhanced
same,tumor growth / tumor volume,HT29 xenografts,moderate tumor reduction
same,KIs that sensitize cancer cells to TRAIL-based agents,[8],Example KIs that sensitize cancer cells to TRAIL-based agents.
"TRAIL: Tumor necrosis factor (TNF)-related apoptosis-inducing ligand, member of the TNF family",circulating half-life,[9],66 min
same,TRAIL-induced apoptosis (cell death) by TRAIL,[10],resistance to TRAIL-induced apoptosis
